In article PMC12488480, “A missing enzyme-rescue metabolite as cause of a rare skeletal dysplasia” (Nature, 2025):

What was measured:
Format in all cases: biochemical
[1] = target: T1, UXS1 (UDP-xylose synthase) (Homo sapiens, UniProt Q8NBZ7); assay: Recombinant enzyme assay, LC-MS
T1 sequence (Q8NBZ7 1-420): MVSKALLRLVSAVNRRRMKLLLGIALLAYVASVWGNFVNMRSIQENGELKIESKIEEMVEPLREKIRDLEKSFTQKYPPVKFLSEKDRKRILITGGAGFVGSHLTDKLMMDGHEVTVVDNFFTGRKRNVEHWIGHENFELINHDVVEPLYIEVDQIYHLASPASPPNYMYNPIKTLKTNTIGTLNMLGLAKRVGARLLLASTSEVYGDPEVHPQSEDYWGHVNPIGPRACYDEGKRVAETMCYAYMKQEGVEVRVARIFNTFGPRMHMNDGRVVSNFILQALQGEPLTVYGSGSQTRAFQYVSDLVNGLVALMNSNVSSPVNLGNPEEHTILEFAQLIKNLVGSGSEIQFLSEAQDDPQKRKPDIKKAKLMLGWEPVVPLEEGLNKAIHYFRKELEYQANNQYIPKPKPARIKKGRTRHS

[2] = target: T2, TGDS (dTDP-D-glucose 4,6-dehydratase) (Homo sapiens, UniProt O95455); assay: Recombinant enzyme assay, LC-MS
T2 construct: N-terminal hexahistidine-tag fused to amino acid 15 of TGDS
T2 sequence (O95455 15-350): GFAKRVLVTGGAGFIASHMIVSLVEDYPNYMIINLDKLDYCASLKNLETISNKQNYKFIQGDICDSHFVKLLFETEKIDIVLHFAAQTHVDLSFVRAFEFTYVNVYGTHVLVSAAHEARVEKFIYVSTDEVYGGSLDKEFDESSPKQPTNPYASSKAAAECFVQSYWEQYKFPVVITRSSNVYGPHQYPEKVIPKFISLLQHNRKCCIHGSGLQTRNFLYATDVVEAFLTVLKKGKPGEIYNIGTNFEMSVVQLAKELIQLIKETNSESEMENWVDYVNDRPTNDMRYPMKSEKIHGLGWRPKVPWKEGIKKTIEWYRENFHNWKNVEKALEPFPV

[3] = target: T1, UXS1 (UDP-xylose synthase); assay: NaBH4 reduction of enzyme-bound NAD+ in recombinant UXS1, LC-MS of NADH and activity

O=c1ccn([C@@H]2O[C@H](COP(=O)(O)OP(=O)(O)O[C@H]3OC[C@@H](O)[C@H](O)[C@H]3O)[C@@H](O)[C@H]2O)c(=O)[nH]1 [UDP-Xyl, UDP-xylose]
Recombinant enzyme assay, LC-MS [1]: We observed an almost complete recovery of UDP-xylose production, an increase of NAD^+

C[C@H]1O[C@H](OP(=O)(O)OP(=O)(O)OC[C@H]2O[C@@H](n3ccc(=O)[nH]c3=O)[C@H](O)[C@@H]2O)[C@H](O)[C@@H](O)C1=O [UDP-4k6dG, UDP-4-keto-6-deoxyglucose]
Recombinant enzyme assay, LC-MS [2]: TGDS produced a metabolite with identical m/z, elution time and hydration status as UDP-4-keto-6-deoxyglucose produced by fungal UG46DH

NC(=O)C1=CN([C@@H]2O[C@H](COP(=O)(O)OP(=O)(O)OC[C@H]3O[C@@H](n4cnc5c(N)ncnc54)[C@H](O)[C@@H]3O)[C@@H](O)[C@H]2O)C=CC1 [NADH]
NaBH4 reduction of enzyme-bound NAD+ in recombinant UXS1, LC-MS of NADH and acti [3]: This led to tenfold lower levels of NAD^+ and a concomitant increase in NADH
